In patent US20190031599A1, “INDANE DERIVATIVES AS MGLUR7 MODULATORS” (Takeda Pharmaceutical Company Limited, priority 2016, published 2019):
pEC50: −log10 of the molar value.

Each molecule was assayed against T1, human mGluR7 (Homo sapiens, UniProt Q14831) (assay: mGluR7 assay: CRE-directed luciferase reporter gene assay, reduction of forskolin stimulated cAMP production). Settings: stable CHO cell line expressing the CRE-luc reporter and human mGluR7 genes; decrease of forskolin stimulated luminescence; 10-point concentration-response, duplicate wells.
T1 construct: expressed in transfected cells
T1 sequence (Q14831 35-915): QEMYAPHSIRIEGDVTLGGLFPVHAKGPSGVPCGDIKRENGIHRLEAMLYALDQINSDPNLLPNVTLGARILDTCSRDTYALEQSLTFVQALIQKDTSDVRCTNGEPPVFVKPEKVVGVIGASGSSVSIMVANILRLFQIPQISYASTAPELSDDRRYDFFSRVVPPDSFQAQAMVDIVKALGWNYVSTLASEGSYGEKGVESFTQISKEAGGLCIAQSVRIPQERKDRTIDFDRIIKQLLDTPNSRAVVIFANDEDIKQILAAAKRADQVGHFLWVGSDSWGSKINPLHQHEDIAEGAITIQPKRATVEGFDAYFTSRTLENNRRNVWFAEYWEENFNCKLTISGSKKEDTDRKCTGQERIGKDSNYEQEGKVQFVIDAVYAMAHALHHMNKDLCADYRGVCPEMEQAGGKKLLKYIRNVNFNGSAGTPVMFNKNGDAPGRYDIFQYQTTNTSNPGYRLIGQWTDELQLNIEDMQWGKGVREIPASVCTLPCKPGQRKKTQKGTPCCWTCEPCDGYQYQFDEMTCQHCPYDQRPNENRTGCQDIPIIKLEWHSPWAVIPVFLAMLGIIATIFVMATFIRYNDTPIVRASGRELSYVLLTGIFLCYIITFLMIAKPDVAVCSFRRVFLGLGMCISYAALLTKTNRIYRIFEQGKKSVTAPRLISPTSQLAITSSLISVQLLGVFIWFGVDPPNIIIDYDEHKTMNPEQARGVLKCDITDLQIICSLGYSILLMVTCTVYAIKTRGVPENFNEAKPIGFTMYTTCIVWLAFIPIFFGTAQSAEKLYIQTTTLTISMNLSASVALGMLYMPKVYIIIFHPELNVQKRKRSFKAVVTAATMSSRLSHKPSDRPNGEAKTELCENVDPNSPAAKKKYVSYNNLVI
Format: cell-based
Description: The ability of the test compounds to activate mGluR7 was determined by their ability to reduce forskolin stimulated cAMP production. Compounds were assessed in a CRE-directed luciferase reporter gene assay, using a stable CHO cell line expressing the CRE-luc reporter and human mGluR7 genes. In this cell line, production of cAMP stimulated the transcription of the luciferase gene and luciferase activity was then measured in a luminescent enzyme assay (Steady Glo assay; Promega E2550). Activation of mGluR7 decreased the forskolin stimulated luminescence signal.
The day prior to the assay, compounds were serially diluted in DMSO (100× final assay concentration (FAC)), in 384-well plates which were then stored in the dark at room temperature (RT) until use. Cells were seeded at 12.5 k/well in white, clear bottom 384-well plates (Corning 3707) and left for one hour at RT followed by an overnight incubation (37° C.). The following day, the DMSO compound plate was diluted 1:20 (5× FAC) in Opti-MEM I (Life Technologies 11058021). The growth media was removed from the cell plate and replaced with 15 μl Opti-MEM I, followed by a 5 μl addition from the 5× compound plate and a fifteen minute incubation (37° C.). Forskolin (Sigma F3917) was then added to the wells (5 μl of 2.5 μM) and the plate was incubated for five hours (37° C.). During this incubation, the Steady Glo Substrate reagent was warmed to 37° C. Aliquots (11 ml; stored at −20° C.) of this reagent were prepared by dissolving the contents of 1 vial of lyophilised substrate in 100 ml Steady-Glo buffer. A 25 μl addition of the substrate was made to all wells and the plate was incubated for thirty minutes at RT, on a plate shaker (300 rpm; in the dark). Luminescence was then measured using the EnVision Multilabel Reader (Perkin Elmer).
Compound activity was examined using a 10-point, half log concentration-response range and each concentration was tested in duplicate wells. Luminescence values were normalised to ‘maximum’ (forskolin alone) and ‘minimum’ (forskolin in the presence of tool mGluR7 agonist) controls.
With `CS(=O)(=O)C1c2ccccc2CC1NC(=O)C(OCC1CC1)c1ccccc1` (single isomer, unassigned) [Example 145, 2-(cyclopropylmethoxy)-N-(trans)-(1-methanesulfonyl-2,3-dihydro-1H-inden-2-yl)-2-phenylacetamide] the pEC50 was 9.22.
`CS(=O)(=O)C1c2ccccc2CC1NC(=O)C(OCC1CC1)c1ccccc1` (single isomer, unassigned) [Example 146, 2-(cyclopropylmethoxy)-N-(trans)-(1-methanesulfonyl-2,3-dihydro-1H-inden-2-yl)-2-phenylacetamide] showed a pEC50 of 8.40.
With `CS(=O)(=O)C1c2ccccc2CC1NC(=O)C(OCC1CC1)c1ccccc1` (single isomer, unassigned) [Example 147, 2-(cyclopropylmethoxy)-N-(trans)-(1-methanesulfonyl-2,3-dihydro-1H-inden-2-yl)-2-phenylacetamide] the pEC50 was 7.41.
Work on `CS(=O)(=O)C1c2ccccc2CC1NC(=O)C(OCC1CC1)c1ccccc1` (single isomer, unassigned) [Example 148, 2-(cyclopropylmethoxy)-N-(trans)-(1-methanesulfonyl-2,3-dihydro-1H-inden-2-yl)-2-phenylacetamide] yielded a pEC50 of 7.80.
In the case of `CO[C@H](C(=O)NC1Cc2ccccc2C1S(C)(=O)=O)c1ccccc1` (single isomer, unassigned) [Example 158], the pEC50 was 7.25.
`CO[C@H](C(=O)NC1Cc2ccccc2C1S(C)(=O)=O)c1ccccc1` (single isomer, unassigned) [Example 159] was tested, and the pEC50 was 7.60.
With `CS(=O)(=O)[C@@H]1c2ccccc2C[C@H]1NC(=O)C(OCC1CC1)c1ccc(F)cc1` (single isomer, unassigned) [Example 161, 2-(cyclopropylmethoxy)-2-(4-fluorophenyl)-N-(trans)-(1-methanesulfonyl-2,3-dihydro-1H-inden-2-yl)acetamide] the pEC50 was 8.70.
For `CS(=O)(=O)[C@@H]1c2ccccc2C[C@H]1NC(=O)C(OCC1CC1)c1ccc(F)cc1` (single isomer, unassigned) [Example 162, 2-(cyclopropylmethoxy)-2-(4-fluorophenyl)-N-(trans)-(1-methanesulfonyl-2,3-dihydro-1H-inden-2-yl)acetamide], the pEC50 was 8.70.
Molecule `C[C@@H](C(=O)NC1Cc2ccccc2C1O)c1ccccc1` (stereo in doubt) [Example 1, (2R)—N-((trans)-1-hydroxy-2,3-dihydro-1H-inden-2-yl)-2-phenylpropanamide] has a pEC50 of 6.25.
`COC1c2ccccc2CC1NC(=O)[C@@H](C)c1ccccc1` (stereo in doubt) [Example 10, (2S)—N-((cis)-1-methoxy-2,3-dihydro-1H-inden-2-yl)-2-phenylpropanamide] gave a pEC50 of 5.99.
Molecule `CCOC1c2ccccc2CC1NC(=O)[C@@H](C)c1ccc(F)cc1` (stereo in doubt) [Example 31, (2S)—N-((trans)-1-ethoxy-2,3-dihydro-1H-inden-2-yl)-2-(4-fluorophenyl)propanamide] has a pEC50 of 7.72.
For `COC1c2ccccc2CC1NC(=O)[C@@H](C)c1ccc(F)cc1` (stereo in doubt) [Example 39, (2S)-2-(4-fluorophenyl)-N-(cis)-(1-methoxy-2,3-dihydro-1H-inden-2-yl)propanamide], the pEC50 was 6.20.
`C[C@H](C(=O)NC1Cc2ccccc2C1O)c1ccc(F)cc1` (stereo in doubt) [Example 61, (2S)-2-(4-fluorophenyl)-N-(trans)-(1-hydroxy-2,3-dihydro-1H-inden-2-yl)propanamide] was tested, and the pEC50 was 7.25.
Molecule `COC1c2ccccc2CC1NC(=O)[C@@H](NC(=O)c1cnn(C)c1)c1ccc(F)cc1` (stereo in doubt) [Example 65, (2S)-2-(4-fluorophenyl)-N-(trans)-(1-methoxy-2,3-dihydro-1H-inden-2-yl)-2-[(1-methyl-1H-pyrazol-4-yl)formamido]acetamide] has a pEC50 of 8.40.
In the case of `COC1c2ccccc2CC1NC(=O)[C@@H](NC(=O)C1CC1)c1ccc(F)cc1` (stereo in doubt) [Example 66, (2S)-2-(cyclopropylformamido)-2-(4-fluorophenyl)-N-(trans)-(1-methoxy-2,3-dihydro-1H-inden-2-yl)acetamide], the pEC50 was 8.40.
